According to patent US20100113590A1, “ADAM INHIBITOR” (Shiseido Company, Ltd., priority 2007, published 2010):

Test system: ADAM
Test: Inhibition of PMA-induced TNF-α release from U937 cells (index of ADAM inhibition), hTNF-α ELISA
Format: cell-based, human
Conditions: for Inhibition rate (%): U937 cells, 30 min pretreatment, 10 nM PMA for 6 hours, released hTNF-α by ELISA; for suppressing effect on HB-EGF release: statement in words summarising the screening, suggests inhibition of ADAM activity
Experimental: For the ADAM inhibiting effect, the TNF-α which is cut out to be released from the membrane of the U937 cell derived from the human lymphoma through the action of ADAM was used as an index, and the inhibiting effect on the TNF-α release by the agents was assessed. A new ADAM inhibitor was explored by screening different compounds according to the present method.
The U937 cells derived from the human lymphoma were seeded to the 48-well plate adjusting the number of the cells to 1×10^5 cells/0.25 ml and cultured at 37° C. overnight. The medium which contained 5 μg/ml or 30 μg/ml of an ascorbic acid derivative was added and incubated at 37° C. for 30 min. to be pretreated. 10 nM PMA (phorbol ester: 12-O-tetradecanoylphorbol-acetate; Sigma P8139) was then added and cultured at 37° C. for 6 hours. After completion of the treatment, the supernatant of the culture was collected, centrifuged and the cell-free supernatant was cryopreserved at −20° C. The assay of the released hTNF-α was performed using the hTNF-α Duo-Set ELISA kit from R & D Ltd. Each supernatant of the culture was diluted 5-folds with the medium, then […] each was added to the 96-well plate and measured according to the protocol of R & D Ltd. The absorbance at 450-570 nm of each well was measured by the measurement kit and concentrations of the samples were obtained from the standard curve. The inhibition rates were calculated according to the following equation wherein A0 is the absorbance of 0% inhibiting control (the medium containing only PMA), A100 is the absorbance of 100% inhibiting control (only the medium) and AS is the absorbance of the sample.
The inhibition rate (%)=(A0−AS)/(A0−A100)×100

Compound: CCCCCCCCCCCCOC1=C(O)[C@@H]([C@@H](O)CO)OC1=O [2-O-dodecyl ascorbic acid]
- Inhibition rate (%) (5 μg/mL): 18.25%
- Inhibition rate (%) (30 μg/mL): 60.07%
- suppressing effect on HB-EGF release: high suppressing effect

Compound: CCCCCCCCCCCCCCCCCCOC1=C(O)[C@@H]([C@@H](O)CO)OC1=O [2-O-octadecyl ascorbic acid]
- Inhibition rate (%) (5 μg/mL): 15.19%
- Inhibition rate (%) (30 μg/mL): 82.70%
- suppressing effect on HB-EGF release: high suppressing effect
